In general, NOAEL refers to the highest dose or exposure tested at which no adverse effect was seen.

Experimental findings from EPA's ToxValDB 9.5 (doi:10.2903/j.efsa.2009.205r) are described below.

In one data set the test system is Typhlodromus pyri. As to the kind of experiment: LR50; higher = less toxic. The following applies: not reported; mortality.
The subject of the next data set is Tagia sp. The following applies: for LC50: acute, duration: 14 days, mortality.
Another data set concerns Apis mellifera. The conditions noted are these: acute, mortality.
The next data set concerns Plant. The following applies: chronic/long-term; duration: 14 days.
The test system of another data set is Landoltia sp. The conditions noted are these: chronic/long-term; duration: 14 days.
The test system of another data set is Daphnia magna. The conditions noted are these: chronic/long-term; duration: 21 days; reproduction.
For a further data set, the system named is Bibionidae. The conditions noted are these: chronic/long-term; duration: 28 days.

In the data set on Typhlodromus pyri, `C[C@@H](Oc1ccc(Oc2cnc3cc(Cl)ccc3n2)cc1)C(=O)OCC1CCCO1` (stereo partly drawn) [Quizalofop P tefuryl] yielded an LR50 of less than 100 g/ha. The LC50 in the data set with Tagia sp. was 16.9 mg/kg; in the data set on Anas platyrhynchos (short-term, oral, feed, mortality), more than 259 mg/kg-day; in the data set on Colinus virginianus (acute, oral, diet, mortality), more than 487 mg/kg-day. The LD50 is more than 2150 mg/kg in the data set on Anas platyrhynchos (acute, oral, unspecified, mortality); more than 100 µg/piece with Apis mellifera (dermal); 16.8 µg/piece in the data set with Apis mellifera (oral, unspecified); 1010 mg/kg-day in the data set with Rattus norvegicus (acute, oral, mortality); more than 2150 mg/kg in the data set with Colinus virginianus (acute, oral, mortality). Further, the NOEC was found to be 68.7 mg/kg-day with Anas platyrhynchos (reproductive) and 69.4 mg/kg-day in the data set with Colinus virginianus (reproduction developmental). In addition, the NOAEL in the data set with Rattus norvegicus (chronic, duration: 2 years, oral, diet) was 1.3 mg/kg-day; with Rattus norvegicus (reproduction developmental, mortality) it was 10 mg/kg-day; in the data set on Rattus norvegicus (reproduction developmental, reproduction), 16.9 mg/kg-day; with Rattus norvegicus (subchronic, duration: 90 days, oral, organ weight) it was 1.7 mg/kg-day.

On to `CC(Oc1ccc(Oc2cnc3cc(Cl)ccc3n2)cc1)C(=O)O` (stereo not drawn) [Quizalofop], for which the LC50 was 948 mg/kg with Tagia sp. and more than 100 µg/mL in the data set with Oncorhynchus mykiss (acute, duration: 96 hours, mortality). Besides, the NOEC in the data set with Tagia sp. (chronic/long-term) is more than 50 mg/kg; in the data set on Plant it was 0.094 mg/L; in the data set with Landoltia sp. it was 3.2 mg/L; with Daphnia magna, 0.82 mg/L; with Oncorhynchus mykiss (chronic/long-term, duration: 28 days, growth), 46.2 mg/L; in the data set on Bibionidae, 35.7 mg/L.
